Test results from paper PMC5296733, “Functional Coupling of Human Microphysiology Systems: Intestine, Liver, Kidney Proximal Tubule, Blood-Brain Barrier and Skeletal Muscle” (Scientific Reports, 2017).
Where two headings read alike, the source gives them in different places. Values belong to the molecule of their own block, whether it stands above or below them.

Tests used:
[1] = Table 2, clinical; cited from earlier work
[2] = system: vascularized proximal tubule kidney (VPTK) module; assay: Vascularized proximal tubule kidney (VPTK) module secretion; settings: for Excreted into proximal tubule lumen, MPS: Table 2, MPS model
[3] = system: differentiated human jejunal enteroids; assay: Intestine module: jejunal enteroid Transwell transport and metabolism
[4] = system: blood-brain barrier/neurovascular unit (BBB/NVU); assay: BBB/NVU module penetration; settings: for Concentration in brain neuronal efflux / Concentration in brain vascular efflux: Brain (12 h)
[5] = system: static SQL-SAL liver model; assay: Static 4-cell SQL-SAL liver in 96-well microplates (vitamin D3); format: in vitro ADME, human
Method: Media without dexamethasone was used to avoid downstream toxicity to the human neurons in the NVU. […]
The intestinal/liver-conditioned media efflux was collected and samples were tested by MS or transported on dry ice for testing in the kidney module, or the BBB/NVU module.
Dexamethasone, normally used to maintain hepatocyte differentiation, was removed from the liver media for functional coupling to avoid downstream toxicity to the human neurons in the NVU. […] Briefly, cryopreserved human hepatocytes were seeded into collagen type 1 coated 96-well plates at 26,000 hepatocytes/well and allowed to attach overnight in hepatocyte plating media (HPM). The HPM was decanted and 1.25x10^5 Ea.Hy.926 endothelial cells and 8 X10^4 differentiated U937 immune cells in MEM media supplemented with 10% FBS and L-Glutamine were added. After 2 h the media was decanted and 40 µL of a slurry of 1.5 mg/mL gelling collagen type 1 in Williams E media with 4 X 10^4 LX-2 stellate cells was added.

[6] = system: blood-brain barrier/neurovascular unit (BBB/NVU); settings: human, 24 h
[7] = system: differentiated human jejunal enteroids; settings: human, 24 h, 100 µM
Liver MPS Organ Module = assay: Effect of vitamin D binding protein on recovery and metabolism in liver module; format: in vitro ADME, human; settings: 7 μM VitD3
Method: Media without dexamethasone was used to avoid downstream toxicity to the human neurons in the NVU. […] Media samples were collected after 24 h and 48 h incubations.
Samples from the treatment conditions were collected after 24-h and 48-h incubations and stored in amber glass vials at -80°C for LC-MS/MS analysis.

[8] = system: proximal tubule kidney (PTK) module; assay: Proximal tubule kidney (PTK) module, vitamin D3 metabolites
[9] = 3 mM TMA added to apical compartment, 0-24 h
[10] = kidney perfused at 3.75 X 10^5 ng/ml TMAO spiked media, 0-6 h
[11] = kidney perfused with liver conditioned media, 0-6 h
[12] = TMA experiment, liver-conditioned media
[13] = liver-conditioned media, 6 h perfusion
[14] = terfenadine experiment, liver-conditioned media, 0-6 h

- Excreted into proximal tubule lumen, MPS [2]: ~ 1% Fex Excreted
- Share of total fexofenadine found in lumen media ([2]; liver-conditioned media, 6 h): ~1%
Structure (SMILES): CC(C)(C(=O)O)c1ccc(C(O)CCCN2CCC(C(O)(c3ccccc3)c3ccccc3)CC2)cc1 (centres unmarked) [Fexofenadine, fexofenadine, reference compound]
- Excreted into proximal tubule lumen, Clinical [1]: 11% Fex Excreted

Structure (SMILES): CN(C)C [TMA, trimethylamine]
- Share of starting TMA concentration found in basolateral media ([3]; 316 μg/mL (3 mM) apical, 24 h): 6%
- Concentration in intestine basolateral media [3, 9]: 19100 ± 2179 ng/mL
- Concentration in intestine basolateral media ([3]; TMA hydrochloride 316 μg/mL (3 mM) apical, 24 h): 19100 ± 2200 ng/mL
- Intestine fate, MPS ([3]; Table 2, MPS model): Uptake & Transport
- Intestine fate, Clinical [1]: Uptake & Transport
- Liver metabolism, Clinical [1]: TMA → TMAO
- TMA Clearance (liver), Clinical [1]: < 5%
- Concentration in kidney plasma efflux [2, 10]: < LOQ < LOQ
- Concentration in kidney proximal tubule lumen [2, 10]: < LOQ < LOQ
- Concentration in kidney plasma efflux [2, 11]: < LOQ <LOQ
- Concentration in kidney proximal tubule lumen [2, 11]: < LOQ <LOQ
- Concentration in brain neuronal efflux [4, 12]: < LOQ < LOQ
- Concentration in brain vascular efflux [4, 12]: < LOQ < LOQ

Structure (SMILES): C[N+](C)(C)[O-] [TMAO, trimethylamine-N-oxide]
- Concentration in intestine apical media [3, 9]: < LOQ^1 < LOQ
- Concentration in intestine basolateral media [3, 9]: < LOQ^1 < LOQ
- Excreted into proximal tubule lumen, Clinical [1]: > 95% TMAO Excreted
- Excreted into proximal tubule lumen, MPS [2]: ~46% TMAO Excreted
- TMAO secreted into the kidney lumen ([2]; independent experiment, media with 375 μg/mL TMAO): 46%
- Concentration in kidney plasma efflux [2, 11]: 21720 ± 6967 ng/mL
- Concentration in kidney proximal tubule lumen [2, 11]: 450 ± 290 ng/mL
- Share of TMAO found in lumenal media [2, 13]: 5%
- Share of TMAO found in vascular media [2, 13]: 95%
- Concentration in brain neuronal efflux [4, 12]: 1800 ± 100 ng/mL
- Concentration in brain vascular efflux [4, 12]: 4600 ± 200 ng/mL
- Concentration in BBB/NVU neuronal efflux ([4]; TMA experiment, 12 h perfusion): 1800 ± 100 ng/mL
- Concentration in BBB/NVU vascular efflux ([4]; TMA experiment, 12 h perfusion): 4600 ± 200 ng/mL

- Concentration in kidney plasma (vascular) efflux [2, 14]: < LOQ^2 < LOQ
- Concentration in kidney proximal tubule lumen [2, 14]: < LOQ^2 < LOQ
Structure (SMILES): CC(C)(C)c1ccc(C(O)CCCN2CCC(C(O)(c3ccccc3)c3ccccc3)CC2)cc1 (centres unmarked) [Terfenadine, terfenadine, reference compound]
- Bio T (liver), Clinical [1]: < 1%
- Intestine fate, Clinical [1]: Ter → Fex

Structure (SMILES): C=C1CC[C@H](O)C/C1=C/C=C1\CCC[C@]2(C)[C@@H]([C@H](C)CCCC(C)C)CC[C@@H]12 [Vitamin D3, vitamin D3, reference compound]
- Liver metabolism, MPS ([5]; Table 2, MPS model, vitamin D3): VD3 → 25(OH)VD3 & 24,25(OH)2VD3
- Vitamin D3 perfused into the liver that was unrecoverable ([5]; initial four-organ functional study, no DBP): 80%
- Concentration in liver efflux media ([5]; vitamin D3 experiment, 96-well 4-cell liver module, 72 h, media pooled): 1100 (pooled)^3 ng/ml
- Share of initial vitamin D3 concentration transported to basolateral media ([3]; 100 μM vitamin D3 in micelles apical, 24 h): 23%
- Concentration in micelle preparation ([3]; synthetic micelles containing 100 μM vitamin D3): 36000 ± 4200 ng/mL
- Concentration in brain neuronal efflux [6]: 0.19 ± 0.23 ng/mL
- Concentration in brain vascular efflux [6]: 45 ± 6.2 ng/mL
- Concentration in intestine apical media [7]: 20000 ± 2200 ng/mL
- Concentration in intestine basolateral media [7]: 8300 ± 410 ng/mL
- VD3 Recovered in Efflux Media (Liver MPS Organ Module; 0-24 h, Williams E Media + 1.25 mg/ml BSA (no DBP)): 20%
- VD3 Recovered in Efflux Media (Liver MPS Organ Module; 0-24 h, Williams E Media + 1.25 mg/ml BSA (no DBP), listed as VD3): 20% recovery
- VD3 Recovered in Efflux Media (Liver MPS Organ Module; 0-24 h, Williams E Media, 1.25 mg/ml BSA, 3 μM Vitamin D Binding Protein, listed as VD3): 57% recovery
- VD3 Recovered in Efflux Media (Liver MPS Organ Module; 24-48 h, Williams E Media, 1.25 mg/ml BSA, 3 μM Vitamin D Binding Protein): ~100%
- VD3 Recovered in Efflux Media (Liver MPS Organ Module; 24-48 h, Williams E Media, 1.25 mg/ml BSA, 3 μM Vitamin D Binding Protein, listed as VD3): 100% recovery
- Concentration in kidney efflux media ([8]; 0-48 h, 50% liver-conditioned, N=2): 1.5 ng/mL
- Concentration in kidney efflux media ([8]; 0-48 h, 80% liver-conditioned): 4.3 ng/mL
- Concentration in kidney efflux media ([8]; 0-120 h, 50% liver-conditioned): 1.0 ng/mL
- Concentration in kidney efflux media ([8]; 0-120 h, 80% liver-conditioned): 1.4 ng/mL
- Penetration through blood-brain barrier, Clinical [1]: VD3 & 25(OH)VD3 Penetration
- Penetration through blood-brain barrier (MPS) ([4]; BBB/NVU module, liver-conditioned media, TMAO 12 h, others 24 h): 0.4%
